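Cultured in 96-well plates, cells were exposed to test compound for 48 hours across five concentrations. Here, GI50 denotes the concentration required for 50% inhibition of growth.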 Active and inactive are the calls of the source. Cut-off read from the data, not from the text of the source: active = GI50 up to about 1.1 µM and inactive = higher.
How the values were obtained:
Experiment in all cases: NCI anticancer screen, dose series, 48 h
786-0 = test system: 786-0
COLO 205 = test system: COLO 205
HT-29 = test system: HT-29
CAKI-1 = test system: CAKI-1
CCRF-CEM = test system: CCRF-CEM
OVCAR-8 = test system: OVCAR-8
SNB-75 = test system: SNB-75
MOLT-4 = test system: MOLT-4
M14 = test system: M14
HCC 2998 = test system: HCC 2998
NCI-H226 = test system: NCI-H226
UACC-257 = test system: UACC-257
LOX IMVI = test system: LOX IMVI
HOP-92 = test system: HOP-92
OVCAR-3 = test system: OVCAR-3
SK-MEL-28 = test system: SK-MEL-28
NCI-H23 = test system: NCI-H23

SMILES | GI50 (786-0) | GI50 (COLO 205) | GI50 (HT-29) | GI50 (CAKI-1) | GI50 (CCRF-CEM) | GI50 (OVCAR-8) | GI50 (SNB-75) | GI50 (MOLT-4) | GI50 (M14) | GI50 (HCC 2998) | GI50 (NCI-H226) | GI50 (UACC-257) | GI50 (LOX IMVI) | GI50 (HOP-92) | GI50 (OVCAR-3) | GI50 (SK-MEL-28) | GI50 (NCI-H23)
COc1ccc(/C(=N/Nc2ccccc2)C(c2ccc(OC)cc2)C2OC(=O)c3ccccc32)cc1 (stereo not drawn) | > 100 µM (inactive) | > 100 µM (inactive) | 90.6 µM (inactive) | 41.9 µM (inactive) | 79.8 µM (inactive) | > 100 µM (inactive) | 48.9 µM (inactive) | 25.6 µM (inactive) | > 100 µM (inactive) | > 100 µM (inactive) | 9.84 µM (inactive) | 76 µM (inactive) |  |  |  |  | 
CC(=O)Nc1c(C)ccc2c1C(=O)c1ccccc1C2=O | > 100 µM (inactive) | > 100 µM (inactive) | > 100 µM (inactive) | 56.5 µM (inactive) | 80.4 µM (inactive) | 82.6 µM (inactive) | 45.7 µM (inactive) | > 100 µM (inactive) | > 100 µM (inactive) | > 100 µM (inactive) | > 100 µM (inactive) | > 100 µM (inactive) | 79.3 µM (inactive) | > 100 µM (inactive) |  |  | 
COc1c(CC(=O)c2ccccc2)c2ccccc2n1C(C)=O | 29.9 µM (inactive) | > 100 µM (inactive) | > 100 µM (inactive) | > 100 µM (inactive) | > 100 µM (inactive) | 91 µM (inactive) | > 100 µM (inactive) | > 100 µM (inactive) | > 100 µM (inactive) | > 100 µM (inactive) |  | > 100 µM (inactive) |  | > 100 µM (inactive) | > 100 µM (inactive) | > 100 µM (inactive) | 58.7 µM (inactive)
O=C1C(Cl)C(c2ccc(Cl)cc2)N1n1cnc2ccccc2c1=O (stereo not drawn) | > 100 µM (inactive) | > 100 µM (inactive) | > 100 µM (inactive) | 40.8 µM (inactive) | 48.6 µM (inactive) | > 100 µM (inactive) | 26.2 µM (inactive) | 88.9 µM (inactive) | > 100 µM (inactive) | > 100 µM (inactive) | > 100 µM (inactive) | > 100 µM (inactive) | 70.5 µM (inactive) |  | > 100 µM (inactive) | > 100 µM (inactive) | > 100 µM (inactive)
O=C1N(Cl)C(=O)C(c2ccc(Cl)cc2)(c2ccc(Cl)cc2)N1Cl | 48.3 µM (inactive) | 41.8 µM (inactive) | 78.9 µM (inactive) | > 100 µM (inactive) | 22.6 µM (inactive) | 71.4 µM (inactive) | > 100 µM (inactive) | 56.8 µM (inactive) | 34.4 µM (inactive) | > 100 µM (inactive) | > 100 µM (inactive) |  |  | > 100 µM (inactive) | > 100 µM (inactive) | > 100 µM (inactive) | > 100 µM (inactive)
CCOC(=O)C(NC(=O)c1ccc(/N=N/N(C)C)cc1)C(C)C (stereo not drawn) | > 100 µM (inactive) | > 100 µM (inactive) | > 100 µM (inactive) | > 100 µM (inactive) | > 100 µM (inactive) | > 100 µM (inactive) | > 100 µM (inactive) | > 100 µM (inactive) | > 100 µM (inactive) | > 100 µM (inactive) | > 100 µM (inactive) | > 100 µM (inactive) | > 100 µM (inactive) |  | > 100 µM (inactive) | > 100 µM (inactive) | > 100 µM (inactive)
C/N=C(/NC)N(C)c1nc(=[N+](C)C)ss1.[O-][Cl+3]([O-])([O-])[O-] | > 100 µM (inactive) |  | > 100 µM (inactive) | 16.3 µM (inactive) | 61.9 µM (inactive) | > 100 µM (inactive) |  | 39.3 µM (inactive) | > 100 µM (inactive) | > 100 µM (inactive) | 59.3 µM (inactive) | > 100 µM (inactive) | 78.9 µM (inactive) | 75 µM (inactive) | > 100 µM (inactive) | > 100 µM (inactive) | 74.1 µM (inactive)
CCOC(=O)c1cc(OC(=O)CC)c2c(OC)ccc(OC)c2c1 | 31 µM (inactive) | > 100 µM (inactive) | > 10 µM (inactive) | 46.2 µM (inactive) |  |  | 11.4 µM (inactive) | 43.7 µM (inactive) |  | > 100 µM (inactive) |  |  |  |  |  | > 100 µM (inactive) | 74 µM (inactive)
CNC(=O)C(C)Oc1ccc(OCC2CCCCC2)cc1 (stereo not drawn) | > 100 µM (inactive) |  | 86.3 µM (inactive) |  | > 100 µM (inactive) | > 100 µM (inactive) | 96.2 µM (inactive) | > 100 µM (inactive) | > 100 µM (inactive) |  | > 100 µM (inactive) | 61.1 µM (inactive) | > 100 µM (inactive) |  | 26.4 µM (inactive) | > 100 µM (inactive) | 35.6 µM (inactive)
CC/C(=N/O)C(C)C(=O)CCC(=O)Nc1ccc(Cl)cc1 (stereo not drawn) | > 100 µM (inactive) | > 100 µM (inactive) | > 100 µM (inactive) | > 100 µM (inactive) | > 100 µM (inactive) | > 100 µM (inactive) | 49.9 µM (inactive) | > 100 µM (inactive) | > 100 µM (inactive) | > 100 µM (inactive) | > 100 µM (inactive) | > 100 µM (inactive) | > 100 µM (inactive) |  | > 100 µM (inactive) | > 100 µM (inactive) | > 100 µM (inactive)
CC(C)(C)c1cc(C(O)(C(F)(F)F)C(F)(F)F)c2c(c1)C(C(F)(F)F)(C(F)(F)F)OC(c1ccccc1)(C(C)(C)C)N2 (stereo not drawn) | > 100 µM (inactive) | 4.08 µM (inactive) | 3.4 µM (inactive) | 4.02 µM (inactive) |  | 6.05 µM (inactive) | 2.82 µM (inactive) | 2.07 µM (inactive) | 0.659 µM (active) | 8.07 µM (inactive) | 3.24 µM (inactive) | 4.99 µM (inactive) |  | < 0.01 µM (active) | 0.637 µM (active) | 9.16 µM (inactive) | 1.99 µM (inactive)
Nc1nc[n+](Cc2ccccc2CCO)c2[nH]cnc12 | > 100 µM (inactive) | > 100 µM (inactive) | > 100 µM (inactive) | > 100 µM (inactive) | > 100 µM (inactive) | > 100 µM (inactive) | > 100 µM (inactive) | > 100 µM (inactive) | > 100 µM (inactive) |  | 36.5 µM (inactive) | > 100 µM (inactive) | > 100 µM (inactive) | > 100 µM (inactive) | > 100 µM (inactive) | > 100 µM (inactive) | > 100 µM (inactive)
CCCCCCCCCCCCCP(=O)(O)NCC(N)=O | > 100 µM (inactive) | > 100 µM (inactive) | > 100 µM (inactive) |  | 52.8 µM (inactive) | 71.3 µM (inactive) | 17.4 µM (inactive) |  | 29.2 µM (inactive) | > 100 µM (inactive) | 62.4 µM (inactive) | 59.4 µM (inactive) | 51.5 µM (inactive) | 25.4 µM (inactive) | 39 µM (inactive) | 39.1 µM (inactive) | > 100 µM (inactive)
COc1cccc2c1[C@]1(O)C(O)CCCC21 (stereo partly drawn) | > 100 µM (inactive) | > 100 µM (inactive) | > 100 µM (inactive) | > 100 µM (inactive) | > 100 µM (inactive) | > 100 µM (inactive) | > 100 µM (inactive) | > 100 µM (inactive) | > 100 µM (inactive) | > 100 µM (inactive) | > 100 µM (inactive) | > 100 µM (inactive) | > 100 µM (inactive) |  | > 100 µM (inactive) | > 100 µM (inactive) | > 100 µM (inactive)
